Assay results: patent publication US20210255193A1, “LYSINE REACTIVE PROBES AND USES THEREOF” (The Scripps Research Institute, priority 2017, published 2021)

Legend:
Format in all cases: biochemical
[1] = target: T1, PNPO (Homo sapiens, UniProt Q9NVS9, K100R); test: PNPO functional assay; conditions: K100R mutant
T1 construct: Flag; expressed in transfected cells; host or cells: HEK 293T, transient transfection, soluble lysate
Description: (§1) PNPO functional assay. 80 μl of soluble proteome (total protein concentration: 1 mg ml^−1) from HEK 293T cells expressing PNPO (WT or K100R mutant) or mock transfected cells (empty vector; negative control) were added into a clear bottom 384 well plate. For compound treatments, 1 μl of the inhibitor (80× solution in DMSO) or 1 μl of DMSO (positive control) were added and the reactions were incubated for 1 h at room temperature. 10 μl of 0.1 M Tris in PBS were added and the reaction was started by addition of 10 μl 5 mM pyridoxine phosphate (PNP) in water (PNP was prepared as described in Argoudelis, C. J., “Preparation of crystalline pyridoxine 5′-phosphate and some of its properties,” J. Agr. Food Chem. 34, 995-998 (1986)). The absorbance of the Schiff Base between pyridoxal phosphate and Tris was measured at 388 nm every minute for 30 min.
(§2) Calculation of relative activity or percent inhibition. For PNPO, PFKP, NUDT2 and G6PD, the slope of the linear regression of the linear portion of the absorbance or fluorescence over time was used as measure their activity. Apparent activity was calculated relative to the WT. Percent inhibition was calculated relative to the positive and negative control and used to calculate IC50 values by nonlinear regression analysis from a dose-response curve generated using GraphPad Prism 7.

[2] = target: T2, PNPO (Homo sapiens, UniProt Q9NVS9); test: PNPO functional assay; conditions: substrate assay, WT; read-out: IC50, blockade of PNPO catalytic activity
T2 construct: Flag; expressed in transfected cells; host or cells: HEK 293T, transient transfection, soluble lysate
T2 sequence (Q9NVS9 1-261): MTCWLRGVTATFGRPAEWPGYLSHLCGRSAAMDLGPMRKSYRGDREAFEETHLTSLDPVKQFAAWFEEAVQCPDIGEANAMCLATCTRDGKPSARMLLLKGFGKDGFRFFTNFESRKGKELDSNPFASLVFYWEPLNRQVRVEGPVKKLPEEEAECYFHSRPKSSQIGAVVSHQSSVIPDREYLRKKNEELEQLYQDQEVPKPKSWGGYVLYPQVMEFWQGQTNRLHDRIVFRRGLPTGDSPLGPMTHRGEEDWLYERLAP
Description: as §1, §2

[3] = target: T3, PFKP (Homo sapiens, UniProt Q01813); test: PFKP functional assay; conditions: WT-PFKP
T3 construct: Flag; expressed in transfected cells; host or cells: HEK 293T, transient transfection, soluble lysate; cDNA clone 5180268 (Dharmacon)
T3 sequence (Q01813 1-784): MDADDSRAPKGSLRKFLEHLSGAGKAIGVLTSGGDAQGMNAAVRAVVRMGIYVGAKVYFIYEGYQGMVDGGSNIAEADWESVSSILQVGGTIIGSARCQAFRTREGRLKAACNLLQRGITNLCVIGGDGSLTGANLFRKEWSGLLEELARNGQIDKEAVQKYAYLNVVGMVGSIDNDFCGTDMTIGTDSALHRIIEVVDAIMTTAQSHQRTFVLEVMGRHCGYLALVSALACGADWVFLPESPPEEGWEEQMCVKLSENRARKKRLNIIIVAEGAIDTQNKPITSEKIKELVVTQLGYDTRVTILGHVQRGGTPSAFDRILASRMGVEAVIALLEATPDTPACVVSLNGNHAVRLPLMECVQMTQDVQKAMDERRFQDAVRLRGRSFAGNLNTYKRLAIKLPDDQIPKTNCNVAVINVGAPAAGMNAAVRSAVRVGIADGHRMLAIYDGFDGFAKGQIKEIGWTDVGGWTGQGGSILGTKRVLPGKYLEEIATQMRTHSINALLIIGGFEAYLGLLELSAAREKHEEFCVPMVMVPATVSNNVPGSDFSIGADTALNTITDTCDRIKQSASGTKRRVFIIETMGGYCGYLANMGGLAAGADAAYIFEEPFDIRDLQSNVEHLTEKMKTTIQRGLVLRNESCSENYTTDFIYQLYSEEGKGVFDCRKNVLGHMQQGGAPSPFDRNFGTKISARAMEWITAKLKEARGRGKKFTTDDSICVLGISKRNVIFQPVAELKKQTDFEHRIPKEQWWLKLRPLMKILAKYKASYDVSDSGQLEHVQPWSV
Description: (§3) PFKP functional assay. For inhibitor experiments, 50 μl of soluble proteome (initial total protein concentration: 1 mg ml^−1) from HEK 293T cells expressing PFKP (WT or K688R mutant) or mock transfected cells (empty vector; negative control) were incubated with 1 μl 50× of the compound in DMSO or DMSO for the positive or negative control for 1 h at room temperature. Lysates were diluted 40× with dilution buffer (PBS containing 0.2 mg ml^−1 BSA and 5 mM MgCl2) and 40 μl were added into a clear bottom 384 well plate. 10 μl of a mixture of 3.5 μl PBS, 2.5 μl fructose-6-phosphate (100 mM), 1 μl NADH (20 mM), 1 μl ATP (50 mM), 1 μl aldolase (50 U ml^−1) and 1 μl GDH/TPI (500 U ml^−1 TPI, 50 U ml^−1 GDH) were added to start the reaction. The absorbance of NADH was measured at 340 nm every minute for 30 min.
as §2

[4] = target: T4, PFKP (Homo sapiens, UniProt Q01813, K688R); test: PFKP functional assay; conditions: K688R mutant
T4 construct: Flag; expressed in transfected cells; host or cells: HEK 293T, transient transfection, soluble lysate; cDNA clone 5180268 (Dharmacon)
Description: as §3, §2

T1 sequence (Q9NVS9 whole entry K100R): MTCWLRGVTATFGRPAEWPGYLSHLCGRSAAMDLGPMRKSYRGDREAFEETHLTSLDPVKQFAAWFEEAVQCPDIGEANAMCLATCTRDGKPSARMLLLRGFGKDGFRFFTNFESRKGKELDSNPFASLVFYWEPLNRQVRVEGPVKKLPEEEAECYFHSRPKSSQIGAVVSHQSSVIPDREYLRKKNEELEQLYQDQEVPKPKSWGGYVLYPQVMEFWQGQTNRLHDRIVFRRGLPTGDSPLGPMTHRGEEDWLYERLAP
T4 sequence (Q01813 whole entry K688R): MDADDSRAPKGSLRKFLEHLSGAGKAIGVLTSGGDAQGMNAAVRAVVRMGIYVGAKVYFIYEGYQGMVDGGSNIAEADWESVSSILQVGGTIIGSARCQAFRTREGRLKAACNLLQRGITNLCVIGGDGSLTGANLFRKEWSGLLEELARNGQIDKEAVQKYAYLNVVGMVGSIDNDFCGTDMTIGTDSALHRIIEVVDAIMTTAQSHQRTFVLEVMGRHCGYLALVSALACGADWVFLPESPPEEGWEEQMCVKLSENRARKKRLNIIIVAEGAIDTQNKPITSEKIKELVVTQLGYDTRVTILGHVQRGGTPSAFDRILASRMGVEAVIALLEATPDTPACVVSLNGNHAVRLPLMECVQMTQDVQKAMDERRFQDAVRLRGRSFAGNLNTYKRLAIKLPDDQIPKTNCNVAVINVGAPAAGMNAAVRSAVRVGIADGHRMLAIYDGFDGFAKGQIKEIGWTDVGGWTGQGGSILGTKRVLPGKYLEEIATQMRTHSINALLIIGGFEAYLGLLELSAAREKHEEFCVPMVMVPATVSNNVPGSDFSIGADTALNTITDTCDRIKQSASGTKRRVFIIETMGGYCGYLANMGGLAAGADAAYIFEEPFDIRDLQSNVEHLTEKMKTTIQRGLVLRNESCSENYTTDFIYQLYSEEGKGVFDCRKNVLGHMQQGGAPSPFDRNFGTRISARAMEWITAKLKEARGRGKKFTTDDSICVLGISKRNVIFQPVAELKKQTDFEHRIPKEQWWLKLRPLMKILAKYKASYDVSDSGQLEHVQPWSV

| inhibitory effect on K100R mutant of PNPO [1] | IC50 [2] [µM] | IC50 ([3]; enzyme-coupled assay, read-out: apparent IC50, inhibition of PFKP activity) [µM] | maximal inhibitory effect, reduction in substrate turnover ([3]; plateau) | inhibition of K688R-PFKP mutant activity [4] | SMILES |
| --- | --- | --- | --- | --- | --- |
| not observed | ~5 |  |  |  | O=C(CCc1cn(-c2ccccc2)nc1-c1ccccc1)Oc1c(F)c(F)c(F)c(F)c1F [fragment 19, Pentafluorophenyl 3-(1,3-diphenyl-1H-pyrazol-4-yl)propanoate] |
|  |  | 2.9 | about 80% | not the K688R-PFKP mutant | O=C(Oc1c(F)c(F)c(F)c(F)c1F)C(c1ccccc1)c1ccccc1 [fragment 20, Pentafluorophenyl 2,2-diphenylacetate] |
